Measured values reported in patent US10105365B2, “Solid antiviral dosage forms” (AbbVie Inc., priority 2014, dated 2018).

Assays:
[1] = Sink Conditions dissolution testing of Formulation C5-12; type: physicochemical; conditions: N = 6
Protocol: The release profiles of Formulation C5-12 of Example 1 were evaluated in a Sink Conditions dissolution study. The study was conducted in 900 mL of dissolution medium using a standard USP dissolution Apparatus 2 (paddle) operating at 100 RPM at 37±0.5° C. The dissolution medium was a 0.05 M sodium phosphate buffer pH 6.8 with 15 mM cTAB as a surfactant.

[2] = Human pharmacokinetic study, Example 4 Arm II (single dose, crossover); type: in vivo; conditions: for AUC(0-inf): read-out: AUC∞, geometric mean; for concentration at 24 h: read-out: C24, geometric mean
Protocol: Formulation C5-12 and a second formulation were tested in Arm II of the study. Adult male and female subjects (N=30 for combined Arm I and Arm II studies) in general good health were selected to participate in the study according to the selection criteria. Subjects meeting the selection criteria were randomly assigned to one of the Regimen sequences as shown below in Table 4-A.
Study drug was administered as provided below in Table 4-B.
Each study regimen was taken orally with approximately 240 mL of water approximately 30 minutes after the start of standardized breakfast. Study regimens were administered orally in the morning on Study Day 1 of each period. For Regimen A the evening dose of the Single Tablet was taken orally with approximately 240 mL of water approximately 30 minutes after the start of the evening snack. Serial blood samples for pharmacokinetic analysis were collected 72 hours after dosing in each period.
The data presented in Tables 4-C through 4-G are preliminary data and are subject to database lock and final data verification.

[3] = Human pharmacokinetic study, Example 4 Arm III (14-day multiple dose, steady state); type: in vivo; conditions: three Formulation C5-12 tablets daily for 14 days, non-fasting
[4] = Human pharmacokinetic study, Example 5 Arm I (single dose, replicated crossover); type: in vivo; conditions: single dose, non-fasting; for AUC(0-inf) / Cmax: both sexes, human, in vivo, oral
Protocol: (§1) A Phase 1, non-fasting, open-label, two-arm, four-period, randomized, crossover study was conducted to compare and characterize the pharmacokinetics of (i) Triple Tablet when co-administered with Single Tablet, and (ii) Formulation C5-12 as discussed below. Part 1 was a single dose, two-treatment, randomized, four period, two sequence replicated crossover study with 88 subjects. Doses in the four periods were separated by at least 10 days. Part 2 was a multiple-dose, two-treatment, two period, randomized crossover study with 66 subjects. Dosing in each period was 14 days and doses in the two periods were separated by at least 10 days.
(§2) Adult male and female subjects in general good health were selected to participate in the study according to the selection criteria. Subjects meeting the selection criteria were randomly assigned to one of the sequences of Regimens A and B (four sequences for Arm I and two sequences for Arm II) as shown below in Table 5-A.
(§3) Study drug was administered as provided below in Table 5-B.
(§4) Each study regimen was taken orally with approximately 240 mL of water approximately 30 minutes after the start of standardized breakfast. Study regimens were administered orally in the morning on Study Day 1 of each period. Serial blood samples for pharmacokinetic analysis were collected 72 hours after dosing in each period.
Tables 5-C, 5-D, 5-E, and 5-F below report the Arm I pharmacokinetic data for Formulation C5-12 (separately reported for each of Compounds 1, 2, 3, and 4). Table 5-G presents the results of a relative bioavailability and 90% confidence interval analysis of the pharmacokinetic data for Formulation C5-12 relative to the reference regimen. The data presented in Tables 5-C through 5-G are preliminary data and are subject to database lock and final data verification by the statistician.

[5] = Human pharmacokinetic study, Example 5 Arm II (multiple dose, crossover); type: in vivo; conditions: for AUC: read-out: AUC24, geometric mean; for concentration at 24 h: read-out: C24, geometric mean
Protocol: as §1, §2, §3, §4

[6] = type: physicochemical
From the text: Moreover, hot melt extrusion, a method commonly used to prepare amorphous solid dispersions, often involves the use of high temperature to assist the formation of a melt that is composed of all components of the final solid dispersion.
This allows the preparation of smaller solid dosage forms (e.g., tablets) comprising all three drug substances.

[7] = Example 4 Arm II, single dose, non-fasting, Regimen E (C5-12): three Formulation C5-12 tablets in the morning, N = 13
[8] = both sexes, human, blood, oral, 3 Formulation C5-12 tablets, Example 4 Arm II, single dose, non-fasting, Regimen E (C5-12): three Formulation C5-12 tablets in the morning, N = 13
[9] = both sexes, human, blood, oral, Example 4 Arm II, single dose, non-fasting, Regimen A (reference regimen): two Triple Tablets + one Single Tablet morning, one Single Tablet evening, N = 13
[10] = Regimen A (C5-12): three film-coated Formulation C5-12 tablets, N = 172
[11] = Regimen B (reference regimen): two Triple Tablets + one Single Tablet morning, one Single Tablet evening, N = 171
[12] = Example 5 Arm II, multiple dose 14 days, non-fasting, Regimen B (reference regimen): two Triple Tablets + one Single Tablet morning, one Single Tablet evening, N = 63
[13] = both sexes, human, blood, oral, 3 film-coated Formulation C5-12 tablets daily, Example 5 Arm II, multiple dose 14 days, non-fasting, Regimen A (C5-12): three film-coated Formulation C5-12 tablets daily, N = 63
[14] = both sexes, human, blood, oral, Example 5 Arm II, multiple dose 14 days, non-fasting, Regimen B (reference regimen): two Triple Tablets + one Single Tablet morning, one Single Tablet evening, N = 63

In the case of `CC(C)c1nc(CN(C)C(=O)N[C@H](C(=O)N[C@@H](Cc2ccccc2)C[C@H](O)[C@H](Cc2ccccc2)NC(=O)OCc2cncs2)C(C)C)cs1` [Compound 3, 1,3-thiazol-5-ylmethyl N-[(2S,3S,5S)-3-hydroxy-5-[(2S)-3-methyl-2-{[methyl({[2-(propan-2-yl)-1,3-thiazol-4-yl]methyl})carbamoyl]-amino}butanamido]-1,6-diphenylhexan-2-yl]carbamate, reference compound], the “% Released” value ([1]; 1 hour, 900 mL 0.05 M sodium phosphate buffer pH 6.8, 15 mM cTAB, USP Apparatus 2, 100 RPM, 37 °C) is reported as 58%, the “% Released” value ([1]; 4 hours, pH 6.8 buffer, 15 mM cTAB) is reported as 99% and the “% Released” value ([1]; 6 hours, pH 6.8 buffer, 15 mM cTAB) is reported as 100%. The “% Released” value ([1]; 8 hours, pH 6.8 buffer, 15 mM cTAB) was 103%, the “% Released” value ([1]; 12 hours, pH 6.8 buffer, 15 mM cTAB) was 102% and the “% Released” value ([1]; 16 hours, pH 6.8 buffer, 15 mM cTAB) was 100%. For the same compound, the “Cmax, geometric mean” value ([2]; Example 4 Arm II, single dose, non-fasting, Regimen A (reference regimen): two Triple Tablets + one Single Tablet morning, one Single Tablet evening, N = 13) was 1.17 µg/mL, the “AUCt, geometric mean” value [2, 7] was 8.16 µg·h/mL and the “Cmax, geometric mean” value [2, 7] was 1.16 µg/mL. It also gave a t1/2 [2, 7] of 4.2 h, an AUC(0-inf) [2, 8] of 8.27 µg·h/mL and a concentration at 24 h [2, 8] of 0.0388 µg/mL. For the same compound, the Tmax ([2]; both sexes, human, blood, oral, 3 Formulation C5-12 tablets, Example 4 Arm II, single dose, non-fasting, Regimen E (C5-12): three Formulation C5-12 tablets in the morning, N = 13, read-out: Tmax) was 4.9 h, the half-life [2, 9] was 4.9 h and the concentration at 24 h [2, 9] was 0.037 µg/mL. For the same compound, the AUC(0-t) ([2]; both sexes, human, in vivo, Example 4 Arm II, single dose, non-fasting, Regimen A (reference regimen): two Triple Tablets + one Single Tablet morning, one Single Tablet evening, N = 13, read-out: AUCt, geometric mean) was 7.71 µg·h/mL, the AUC(0-inf) ([2]; both sexes, human, in vivo, Example 4 Arm II, single dose, non-fasting, Regimen A (reference regimen): two Triple Tablets + one Single Tablet morning, one Single Tablet evening, N = 13) was 7.9 µg·h/mL and the “C24, arithmetic mean, % CV” value ([2]; both, human, in vivo, 24 h) was “(46.3, 62) ng/mL”. For the same compound, the Tmax ([3]; human, in vivo, oral, 3 Formulation C5-12 tablets daily, Day 1, N = 14) was 5.4 h, the concentration at 24 h ([3]; human, in vivo, oral, 3 Formulation C5-12 tablets daily, Day 1, N = 14, read-out: C24, geometric mean) was 0.0347 µg/mL and the Tmax ([3]; human, in vivo, oral, 3 Formulation C5-12 tablets daily, Day 14, N = 14) was 4.7 h. For the same compound, the AUC ([3]; human, in vivo, oral, 3 Formulation C5-12 tablets daily, Day 14, N = 14, read-out: AUC24, geometric mean) was 10.7 µg·h/mL, the concentration at 24 h ([3]; human, in vivo, oral, 3 Formulation C5-12 tablets daily, Day 14, N = 14, read-out: C24, geometric mean) was 0.04 µg/mL and the Cmax ([3]; human, in vivo, oral, 3 Formulation C5-12 tablets daily, Day 14, N = 14, read-out: Cmax, geometric mean) was 1.43 µg/mL. For the same compound, the “AUC24, geometric mean” value ([3]; Day 1, N = 14) was 7.23 µg·h/mL, the “Cmax, geometric mean” value ([3]; Day 1, N = 14) was 0.921 µg/mL and the t1/2 ([3]; Day 14, N = 14) was 4.0 h. It also gave a β ([3]; Day 14, N = 14) of 0.174 h⁻¹, an AUC(0-inf) ([4]; 3 film-coated Formulation C5-12 tablets, Regimen A (C5-12): three film-coated Formulation C5-12 tablets, N = 172, read-out: AUC∞, geometric mean) of 8.09 µg·h/mL and a Cmax ([4]; 3 film-coated Formulation C5-12 tablets, Regimen A (C5-12): three film-coated Formulation C5-12 tablets, N = 172, read-out: Cmax, geometric mean) of 1.13 µg/mL. The AUC(0-inf) ([4]; Regimen B (reference regimen): two Triple Tablets + one Single Tablet morning, one Single Tablet evening, N = 171, read-out: AUC∞, geometric mean) was 8.75 µg·h/mL, the Cmax ([4]; Regimen B (reference regimen): two Triple Tablets + one Single Tablet morning, one Single Tablet evening, N = 171, read-out: Cmax, geometric mean) was 1.43 µg/mL and the “AUCt, geometric mean” value [4, 10] was 7.45 µg·h/mL. For the same compound, the “Tmax, first value (geometric mean)” value [4, 10] was 4.0 h, the t1/2 [4, 10] was 4.52 h and the “AUCt, geometric mean” value [4, 11] was 8.61 µg·h/mL. The t1/2 [4, 11] was 4.47 h, the “Cmax, arithmetic mean, % CV” value [5, 12] was “(1800,44) ng/mL” and the “Cmax, geometric mean” value [5, 12] was 1.68 µg/mL. For the same compound, the half-life [5, 13] was 4.6 h, the AUC [5, 13] was 8.67 µg·h/mL and the concentration at 24 h [5, 13] was 0.0362 µg/mL. The Cmax ([5]; both sexes, human, blood, oral, 3 film-coated Formulation C5-12 tablets daily, Example 5 Arm II, multiple dose 14 days, non-fasting, Regimen A (C5-12): three film-coated Formulation C5-12 tablets daily, N = 63, read-out: Cmax, geometric mean) was 1.34 µg/mL, the AUC [5, 14] was 9.58 µg·h/mL and the concentration at 24 h [5, 14] was 0.0351 µg/mL. The “Cmax,ss lower than Cmax,ss for the reference regimen” value ([5]; both, human, in vivo, 14 days) was 21%, the “Exposures (C24,ss and AUC24,ss) versus the reference regimen” value ([5]; in vivo) was “bioequivalent” and the “Degradation in hot melt extrusion” value [6] was “well within the acceptable levels”. For the same compound, the “Temperature beyond which degradation can reach unacceptable levels” value [6] was over 140 °C.
